Results published in patent publication US20200262864A1, “DEUTERATED FORMS OF AMINOSTEROLS AND METHODS OF USING THE SAME” (Enterin, Inc., priority 2019, published 2020).

Key:
[1] = target: T1, Protein Tyrosine Phosphatase 1B (PTP1B), human truncated form (1-321) (Homo sapiens, UniProt P18031); assay: Inhibition of PTP1B, 10-dose IC50 mode, fluorescence readout of enzyme activity; type: biochemical; settings: for HILLSLOPE: 10-dose curve
T1 construct: The enzyme was the human truncated form (1-321), recombinantly produced in E. coli; host or cells: E. coli
T1 sequence (P18031 1-321): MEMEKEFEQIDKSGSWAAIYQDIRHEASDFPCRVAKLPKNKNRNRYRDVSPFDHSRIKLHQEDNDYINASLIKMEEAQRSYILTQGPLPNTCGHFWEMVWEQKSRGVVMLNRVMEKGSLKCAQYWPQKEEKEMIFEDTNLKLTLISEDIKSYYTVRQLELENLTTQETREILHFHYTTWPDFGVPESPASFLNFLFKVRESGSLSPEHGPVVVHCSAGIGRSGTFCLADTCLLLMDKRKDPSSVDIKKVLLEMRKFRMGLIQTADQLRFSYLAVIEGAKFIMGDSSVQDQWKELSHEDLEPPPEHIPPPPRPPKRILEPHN
Description: The enzyme was the human truncated form (1-321), recombinantly produced in E. coli. Fluorescence was measured to monitor enzyme activity.

[2] = Pharmacological activity in mice as weight loss agent; type: in vivo
Excerpt: Food was provided ad lib.

C. elegans model of PD = settings: cited from earlier work
[3] = single and repeat intravenous administration, dilactate salt, alone or in combination; cited from earlier work
[4] = Phase 2 trial of oral squalamine (ENT-01): pharmacokinetics; type: in vivo, human; settings: patients of Example 8
Description: PK data were collected on the 10 patients enrolled in Stage 1 and 10 patients enrolled in Stage 2 to determine the extent of systemic absorption. In Stage 1, PK data were obtained at each visit, pre-medication, at 1, 2, 4, 8 and 24 hours (Table 9). In Stage 2, PK was measured on days 1 and 6 of the randomization period pre-medication, at 1, 2, 4 and 8 hours (Table 10).
The mean Cmax, Tmax and T1/2 and AUC of the squalamine ion following squalamine (ENT-01) oral dosing for Stage 1 patients. The PK analyses are only approximate, as the lower limit of the validated concentration range was 10 ng/ml; most of the measured concentrations fell below that value. The mean Cmax, Tmax and T1/2 and AUC of the squalamine ion following squalamine (ENT-01) oral dosing for Stage 2 patients. The PK analyses are only approximate, as the lower limit of the validated concentration range was 0.5 ng/ml.

mouse models of PD = settings: several mouse models of PD; cited from earlier work
[5] = as the dilactate salt; cited from earlier work
[6] = i.p. 10 mg/kg on days 0, 2, 4, 6, 8 and 10, N=3

Row | SMILES | HILLSLOPE [1] | % Activity ([1]; Conc 1.00E−04 M) [%] | Slope (signal/min) ([1]; Conc 1.00E−04 M) | % Activity ([1]; Conc 1.11E−05 M) [%] | Slope (signal/min) ([1]; Conc 1.11E−05 M) | Slope (signal/min) ([1]; Conc 1.23E−06 M) | Slope (signal/min) ([1]; Conc 1.37E−07 M) | Slope (signal/min) ([1]; Conc 1.52E−08 M) | Slope (signal/min) ([1]; Conc 3.33E−05 M) | Slope (signal/min) ([1]; Conc 3.70E−06 M) | Slope (signal/min) ([1]; Conc 4.12E−07 M) | Slope (signal/min) ([1]; Conc 4.57E−08 M) | Slope (signal/min) ([1]; Conc 5.08E−09 M) | other results
1 | [2H]C([2H])([2H])C([2H])(C(CC[C@@H](C)[C@H]1CCC2C3C(CC[C@@]21C)[C@@]1(C)CC[C@H](NCCCNCCCCNCCCN)C[C@@H]1C[C@H]3O)OS(=O)(=O)O)C([2H])([2H])[2H] (some centres unmarked) [Compound D7-1436] | −2.50 | −0.37 | −161 | −0.74 | −319 | 34760 | 40150 | 43819 | −362 | 8429 | 41755 | 43697 | 44655 | % Activity ([1]; Conc 1.23E−06 M): 80.63%; % Activity ([1]; Conc 1.37E−07 M): 93.14%; % Activity ([1]; Conc 1.52E−08 M): 101.65%; % Activity ([1]; Conc 3.33E−05 M): −0.84%; % Activity ([1]; Conc 3.70E−06 M): 19.55%; % Activity ([1]; Conc 4.12E−07 M): 96.86%; % Activity ([1]; Conc 4.57E−08 M): 101.36%; % Activity ([1]; Conc 5.08E−09 M): 103.59%; body weight reached ([2]; i.p. 10 mg/kg on days 0, 2, 4, 6, 8 and 10, by day 16, N=3): about 45 % of the starting weight; condition of the animals ([2]; i.p. 10 mg/kg on days 0, 2, 4, 6, 8 and 10, day 16): appeared moribund and were euthanized; potency as compared with MSI-1436 ([2]; weight loss, i.p. 10 mg/kg): increased potency
2 | CC(C)[C@@H](CC[C@@H](C)C1CCC2C3C(CC[C@@]21C)[C@@]1(C)CC[C@H](NCCCNCCCCNCCCN)C[C@@H]1C[C@H]3O)OS(=O)(=O)O (some centres unmarked) [MSI-1436, reference compound] | −2.19 | −0.16 | −68 | 0.68 | 292 | 37260 | 40137 | 44021 | −440 | 16431 | 39959 | 42717 | 43513 | nadir in weight [2, 6]: ~16 days; recovery to starting weight [2, 6]: 45 days
3 | CC(C)[C@@H](CC[C@@H](C)C1CCC2C3C(CC[C@@]21C)[C@@]1(C)CC[C@H](NCCCNCCCCN)C[C@@H]1C[C@H]3O)OS(=O)(=O)O (stereo partly drawn) [squalamine, 3 beta-N-1-(N-[3-(4-aminobutyl)]-1,3-diaminopropane)-7 alpha,24 zeta-dihydroxy-5 alpha-cholestane 24-sulfate] | – | – | – | – | – | – | – | – | – | – | – | – | – | muscle paralysis (C. elegans model of PD): complete reversal; well tolerated dose [3]: at least 300 mg/m^2; systemic absorption following oral administration [4]: not significantly absorbed; gastrointestinal dysmotility (mouse models of PD): reverse gastrointestinal dysmotility; water solubility [5]: highly water soluble
